Test results as given in patent US7135615B2, “Chromosome doubling method” (The Curators of the University of Missouri, priority 2001, dated 2006).
Several values for one entry are separate records, joined by “and”; a condition that tells them apart may be missing. Equal values may be shown once. Marks after values point to notes of the source that are not given here.

Legend:
[1] = test system: maize haploid seedlings of origin B73; experiment: doubled haploid production trial, B73 haploids (Example 4); settings: for Ear: Plants with kernels after selfing % / Tassel: No. of fertile anthers extruded/tassel / Tassel: No. of fertile sectors/tassel / Tassel: Plants with fertile sectors % / Ear: Plants with kernels after selfing No. / Tassel: Plants with fertile sectors No. / No. of plants Survived / Ear: No. of kernels produced/ear: B73 haploids, 600 kPa, 2 days; for Ear: Plants with kernels after selfing No. / Tassel: Plants with fertile sectors No.: 11 survived; for No. of plants Survived: 11 treated; for Ear: No. of kernels produced/ear: selfed
Experimental: (§1) Ten to nineteen plants were treated for each plot. Self pollinations were conducted on these treated haploids if there were fertile sectors on the tassel. Pollen grains were collected carefully on a sheet of paper and transferred to the silks repeatedly. Silks and husks were cut back prior to pollination in order to permit maximum seed set. The numbers of fertile tassel and ear sectors, as well as the numbers of anthers and selfed kernels were recorded. Statistical analyses were as described above.

[2] = test system: maize haploid seedlings of origin Oh43; experiment: doubled haploid production trial, Oh43 haploids (Example 4); settings: for Ear: Plants with kernels after selfing % / Tassel: No. of fertile anthers extruded/tassel / Tassel: Plants with fertile sectors % / Ear: Plants with kernels after selfing No. / Tassel: Plants with fertile sectors No. / No. of plants Survived / Ear: No. of kernels produced/ear: 600 kPa, 2 days; for Ear: No. of kernels produced/ear: selfed
Experimental: as §1

[3] = test system: maize haploid seedlings of origin A619 × B73; experiment: doubled haploid production trial, A619 × B73 haploids (Example 4); settings: 600 kPa, 2 days; for Ear: No. of kernels produced/ear: selfed
Experimental: as §1

[4] = test system: flowers of grasses; maize haploids; experiment: nitrous oxide procedure, general statement of doubling and selfing rates; format: in vivo, maize (Zea mays L.)
Text: The technique results from studies carried out for the development of a high-yield technique for chromosome doubling in grasses and particularly, in maize. The new procedure induces doubled sectors on the flowers of grasses at a high rate (50–100%) without injuring seedlings. […] With the technique, large number of plants (1000/day) can be treated by one person. In maize haploids, doubled sectors are induced both on the tassels and ears and self pollination is possible at 30–90% level, whereas no reliable procedure for chromosome doubling had previously been available.

[5] = test system: haploid seedlings; experiment: survival of haploid seedlings treated with nitrous oxide gas (all experiments); format: in vivo, maize (Zea mays L.); settings: 450 haploid seedlings treated
Experimental: The germinated seeds were transferred to small plastic pots filled with ProMix, a peat moss based growing medium (Hummert, St. Louis, Miss.). The seedlings were grown in a greenhouse for one to four weeks. Stock 6 induced 1–5 putative haploid kernels per ear (purple kernel with white embryo or yellow kernel with purple embryo) on all genotypes. A total of 715 putative haploid kernels were planted for the experiments. Most of them (94%) were determined to be haploid from their morphology and high sterility. The remaining 4.7% were misclassified F1s, 1.1% were hypoploids, and 0.3% (one plant induced from B73 and one plant from Oh43×Mol7) were spontaneous doubled haploids. […] In a second study, fourteen out of 50 treated Oh43 haploid seedlings died from fungus attack.

[6] = Oh43 haploids, 5 leaf stage, 14 survived
[7] = Oh43 haploids, 6 leaf stage, 12 survived
[8] = Oh43 haploids, 7 leaf stage, 10 survived

Structure (SMILES): [N-]=[N+]=O [nitrous oxide gas, nitrous oxide]
- ear and silk abnormalities ([1]; B73 haploids treated at the 7 leaf stage): deformed ears and delayed silk emergence
- Ear: Plants with kernels after selfing % ([1]; 5 leaf stage): 36 n.s. %
- Tassel: No. of fertile anthers extruded/tassel ([1]; 5 leaf stage): 3.5 n.s /tassel
- Tassel: No. of fertile sectors/tassel ([1]; 5 leaf stage): 0.5 n.s. /tassel
- Tassel: Plants with fertile sectors % ([1]; 5 leaf stage): 45 n.s. %
- Ear: Plants with kernels after selfing No. ([1]; 5 leaf stage): 4
- Tassel: Plants with fertile sectors No. ([1]; 5 leaf stage): 5
- No. of plants Survived ([1]; 5 leaf stage): 11
- Ear: No. of kernels produced/ear ([1]; 5 leaf stage): 2.4 n.s. /ear
- Ear: Plants with kernels after selfing % ([1]; 6 leaf stage): 45%
- Tassel: No. of fertile anthers extruded/tassel ([1]; 6 leaf stage): 13.2 /tassel
- Tassel: Plants with fertile sectors % ([1]; 6 leaf stage): 64%
- Ear: Plants with kernels after selfing No. ([1]; 6 leaf stage): 5
- Tassel: Plants with fertile sectors No. ([1]; 6 leaf stage): 7
- No. of plants Survived ([1]; 6 leaf stage): 11
- Ear: No. of kernels produced/ear ([1]; 6 leaf stage): 10.7 /ear
- Ear: Plants with kernels after selfing % ([1]; 7 leaf stage): 18%
- Tassel: No. of fertile anthers extruded/tassel ([1]; 7 leaf stage): 14.9 /tassel
- Tassel: No. of fertile sectors/tassel ([1]; 7 leaf stage): 1.4 /tassel
- Tassel: Plants with fertile sectors % ([1]; 7 leaf stage): 64%
- Ear: Plants with kernels after selfing No. ([1]; 7 leaf stage): 2
- Tassel: Plants with fertile sectors No. ([1]; 7 leaf stage): 7
- No. of plants Survived ([1]; 7 leaf stage): 11
- Ear: No. of kernels produced/ear ([1]; 7 leaf stage): 0.9 /ear
- self pollination success rates after treatment ([2]; Oh43 haploids): 20–30%
- Ear: Plants with kernels after selfing % ([2]; Oh43 haploids, 5 leaf stage): 29 n.s %
- Tassel: No. of fertile anthers extruded/tassel ([2]; Oh43 haploids, 5 leaf stage): 11.2* /tassel
- Tassel: Plants with fertile sectors % ([2]; Oh43 haploids, 5 leaf stage): 57%
- Ear: Plants with kernels after selfing No. [2, 6]: 4
- Tassel: Plants with fertile sectors No. [2, 6]: 8
- No. of plants Survived ([2]; Oh43 haploids, 5 leaf stage, 19 treated): 14
- Ear: No. of kernels produced/ear ([2]; Oh43 haploids, 5 leaf stage): 0.6 n.s. /ear
- Ear: Plants with kernels after selfing % ([2]; Oh43 haploids, 6 leaf stage): 17%
- Tassel: No. of fertile anthers extruded/tassel ([2]; Oh43 haploids, 6 leaf stage): 5.7** /tassel
- Tassel: Plants with fertile sectors % ([2]; Oh43 haploids, 6 leaf stage): 92** %
- Ear: Plants with kernels after selfing No. [2, 7]: 2
- Tassel: Plants with fertile sectors No. [2, 7]: 11
- No. of plants Survived ([2]; Oh43 haploids, 6 leaf stage, 16 treated): 12
- Ear: No. of kernels produced/ear ([2]; Oh43 haploids, 6 leaf stage): 1.0 /ear
- Ear: Plants with kernels after selfing % ([2]; Oh43 haploids, 7 leaf stage): 10%
- Tassel: No. of fertile anthers extruded/tassel ([2]; Oh43 haploids, 7 leaf stage): 2.6 /tassel
- Tassel: Plants with fertile sectors % ([2]; Oh43 haploids, 7 leaf stage): 70* %
- Ear: Plants with kernels after selfing No. [2, 8]: 1
- Tassel: Plants with fertile sectors No. [2, 8]: 7
- No. of plants Survived ([2]; Oh43 haploids, 7 leaf stage, 15 treated): 10
- Ear: No. of kernels produced/ear ([2]; Oh43 haploids, 7 leaf stage): 0.1 /ear
- Tassel: No. of fertile sectors/tassel ([2]; in vivo): 0.8 /tassel and 1.3** /tassel and 1.0 /tassel
- Ear: Plants with kernels after selfing % ([3]; 5 leaf stage): 36 n.s. %
- Tassel: No. of fertile anthers extruded/tassel ([3]; 5 leaf stage): 20.8** /tassel
- Tassel: Plants with fertile sectors % ([3]; 5 leaf stage): 73** %
- Ear: Plants with kernels after selfing No. ([3]; 5 leaf stage, 11 survived): 4
- Tassel: Plants with fertile sectors No. ([3]; 5 leaf stage, 11 survived): 8
- No. of plants Survived ([3]; 5 leaf stage, 12 treated): 11
- Ear: No. of kernels produced/ear ([3]; 5 leaf stage): 4.2 n.s. /ear
- Ear: Plants with kernels after selfing % ([3]; 6 leaf stage): 36%
- Tassel: No. of fertile anthers extruded/tassel ([3]; 6 leaf stage): 34.5** /tassel
- Tassel: No. of fertile sectors/tassel ([3]; 6 leaf stage): 1.7** /tassel
- Tassel: Plants with fertile sectors % ([3]; 6 leaf stage): 73** %
- Ear: Plants with kernels after selfing No. ([3]; 6 leaf stage, 11 survived): 4
- Tassel: Plants with fertile sectors No. ([3]; 6 leaf stage, 11 survived): 8
- No. of plants Survived ([3]; 6 leaf stage, 11 treated): 11
- Ear: No. of kernels produced/ear ([3]; 6 leaf stage): 6.2 /ear
- Ear: Plants with kernels after selfing % ([3]; 7 leaf stage): 17%
- Tassel: No. of fertile anthers extruded/tassel ([3]; 7 leaf stage): 4.8* /tassel
- Tassel: Plants with fertile sectors % ([3]; 7 leaf stage): 75** %
- Ear: Plants with kernels after selfing No. ([3]; 7 leaf stage, 12 survived): 2
- Tassel: Plants with fertile sectors No. ([3]; 7 leaf stage, 12 survived): 9
- No. of plants Survived ([3]; 7 leaf stage, 12 treated): 12
- Ear: No. of kernels produced/ear ([3]; 7 leaf stage): 3.5 /ear
- rate of doubled sectors induced on the flowers of grasses ([4]; grasses, without injuring seedlings): 50–100%
- level at which self pollination is possible ([4]; maize haploids, doubled sectors on both tassels and ears): 30–90%
- survived the treatment [5]: 92%
